Test results from patent publication US20150105252A1, “SUBSTITUTED PYRAZOLES AS HERBICIDES” (E I DU PONT DE NEMOURS AND COMPANY, priority 2013, published 2015).

How the values were obtained:
kochia = assay: Test E preemergence; assay type: in vivo, Kochia scoparia; details: 21 days, scale 0 to 100
Excerpt: (§1) Seeds of plant species selected from bermudagrass (Cynodon dactylon), Surinam grass (Brachiaria decumbens), crabgrass, large (large crabgrass, Digitaria sanguinalis), crabgrass, naked (naked crabgrass, Digitaria nuda), foxtail, green (green foxtail, Setaria viridis), johnsongrass (Sorghum halepense), kochia (Kochia scoparia), morningglory (pitted morningglory, Ipomoea lacunosa), nutsedge, purple (purple nutsedge, Cyperus rotundus), ragweed (common ragweed, Ambrosia elation), mustard, black (black mustard, Brassica nigra), guineagrass (Panicum maximum), dallisgrass (Paspalum dilatatum), barnyardgrass (Echinochloa crus-galli), sandbur (southern sandbur, Cenchrus echinatus), sowthistle (common sowthistle, Sonchus oleraceous), ryegrass, Italian (Italian ryegrass, Lolium multiflorum), signalgrass (broadleaf signalgrass, Brachiaria platyphylla), dayflower, VA (Virginia (VA) dayflower, Commelina virginica), bluegrass (annual bluegrass, Poa annua), quackgrass (Elytrigia repens), mallow (common mallow, Malva sylvestris), buckwheat, wild (wild buckwheat, Polygonum convolvulus), leafy spurge (Euphorbia esula), common chickweed (Stellaria media), wild poinsettia (Euphorbia heterophylla), pigweed, palmer (palmer pigweed, Amaranthus palmeri), and pigweed (redroot pigweed, Amaranthus retroflexus) were planted into a blend of loam soil and sand and treated preemergence with test chemicals formulated in a non-phytotoxic solvent mixture which included a surfactant.
(§2) Treated plants and controls were maintained in a greenhouse for 21 days, after which time all species were compared to controls and visually evaluated. Plant response ratings, summarized in Table E, are based on a scale of 0 to 100 where 0 is no effect and 100 is complete control. A dash (-) response means no test result.

signalgrass = assay: Test E preemergence; assay type: in vivo, Brachiaria platyphylla; details: 21 days, scale 0 to 100
Excerpt: as §1, §2

dayflower, VA = assay: Test E preemergence; assay type: in vivo, Commelina virginica; details: 21 days, scale 0 to 100
Excerpt: as §1, §2

soybean = assay: Test F postemergence; assay type: in vivo, Glycine max; details: scale 0 to 100
Procedure, shortened: (§3)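 Visual rating 0–100 vs untreated controls (0 = no effect, 100 = complete control) after 14–21 d greenhouse. Pre: seeds in silt loam soil. Post: plants 2–18 cm, 1–4 leaf. Formulation: non-phytotoxic solvent mix + surfactant.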

fall panicum = assay: Test F postemergence; assay type: in vivo, Panicum dichotomiflorum; details: scale 0 to 100
Procedure, shortened: as §3

ryegrass, Italian = assay: Test E preemergence; assay type: in vivo, Lolium multiflorum; details: 21 days, scale 0 to 100
Excerpt: as §1, §2

common ragweed = assay: Test F postemergence; assay type: in vivo, Ambrosia elation; details: scale 0 to 100
Excerpt: Seeds of plant species selected from corn (Zea mays), soybean (Glycine max), velvetleaf (Abutilon theophrasti), lambsquarters (Chenopodium album), wild poinsettia (Euphorbia heterophylla), pigweed, palmer (palmer pigweed, Amaranthus palmeri), common waterhemp (Amaranthus rudis), surinam grass (Brachiaria decumbens), large crabgrass (Digitaria sanguinalis), crabgrass, Brazil (Brazilian crabgrass, Digitaria horizontalis), fall panicum (Panicum dichotomiflorum), giant foxtail (Setaria faberii), green foxtail (Setaria viridis), goosegrass (Eleusine indica), johnsongrass (Sorghum halepense), common ragweed (Ambrosia elation), barnyardgrass (Echinochloa crus-galli), southern sandbur (Cenchrus echinatus), arrowleaf sida (Sida rhombifolia), Italian ryegrass (Lolium multiflorum), dayflower, VA (Virginia (VA) dayflower, Commelina virginica), field bindweed (Convolvulus arvensis), cocklebur (common cocklebur, Xanthium strumarium), morningglory (Ipomoea coccinea), nightshade (eastern black nightshade, Solanum ptycanthum), kochia (Kochia scoparia), yellow nutsedge (Cyperus esculentus), and hairy beggarticks (Bidens pilosa), were planted into a silt loam soil and treated preemergence with test chemicals formulated in a non-phytotoxic solvent mixture which included a surfactant.
At the same time, plants from these crop and weed species and also horseweed (Canada horseweed, Conyza canadensis), smartweed (ladysthumb smartweed, Polygonum persicaria), waterhemp_RES1, (ALS & Triazine resistant common waterhemp, Amaranthus rudis), and waterhemp_RES2, (ALS & HPPD resistant common waterhemp, Amaranthus rudis) were treated with postemergence applications of test chemicals formulated in the same manner. Plants ranged in height from 2 to 18 cm for postemergence treatments (1- to 4-leaf stage). Treated plants and controls were maintained in a greenhouse for 14 to 21 days, after which time all species were compared to controls and visually evaluated. Plant response ratings, summarized in Table F, are based on a scale of 0 to 100 where 0 is no effect and 100 is complete control. A dash (-) response means no test result.

morningglory = assay: Test E preemergence; assay type: in vivo, Ipomoea lacunosa; details: 21 days, scale 0 to 100
Excerpt: as §1, §2

mustard, black = assay: Test E preemergence; assay type: in vivo, Brassica nigra; details: 21 days, scale 0 to 100
Excerpt: as §1, §2

ragweed = assay: Test E preemergence; assay type: in vivo, Ambrosia elation; details: 21 days, scale 0 to 100
Excerpt: as §1, §2

barnyardgrass = assay: Test E preemergence; assay type: in vivo, Echinochloa crus-galli; details: 21 days, scale 0 to 100
Excerpt: as §1, §2

pigweed, palmer = assay: Test F postemergence; assay type: in vivo, Amaranthus palmeri; details: scale 0 to 100
Procedure, shortened: as §3

bermudagrass = assay: Test E preemergence; assay type: in vivo, Cynodon dactylon; details: 21 days, scale 0 to 100
Excerpt: as §1, §2

CCCc1cc(C(=O)NCC(F)(F)F)nn1Cc1ccnc(C(F)(F)F)c1 [Compound 105]
80: Plant response rating, Soybean (soybean; postemergence, 62 g ai/ha) | Plant response rating, Fall Panicum (fall panicum; Postemergence, 250 g ai/ha) | Plant response rating, Pigweed, Palmer (pigweed, palmer; postemergence, 500 g ai/ha)
50: Plant response rating, Common Ragweed (common ragweed; Postemergence, 31 g ai/ha)
75: Plant response rating, Signalgrass (signalgrass; 16 g ai/ha) | Plant response rating, Dayflower, VA (dayflower, VA; 31 g ai/ha) | Plant response rating, Pigweed, Palmer (pigweed, palmer; Postemergence, 250 g ai/ha)
20: Plant response rating, Fall Panicum (fall panicum; postemergence, 62 g ai/ha)
65: Plant response rating, Ryegrass, Italian (ryegrass, Italian; 16 g ai/ha)
90: Plant response rating, Soybean (soybean; Postemergence, 125 g ai/ha) | Plant response rating, Fall Panicum (fall panicum; postemergence, 500 g ai/ha) | Plant response rating, Common Ragweed (common ragweed; Postemergence, 125 g ai/ha) | Plant response rating, Common Ragweed (common ragweed; Postemergence, 250 g ai/ha) | Plant response rating, Bermudagrass (bermudagrass; 31 g ai/ha)
35: Plant response rating, Dayflower, VA (dayflower, VA; 16 g ai/ha) | Plant response rating, Barnyardgrass (barnyardgrass; 16 g ai/ha)
95: Plant response rating, Dayflower, VA (dayflower, VA; 62 g ai/ha) | Plant response rating, Dayflower, VA (dayflower, VA; 125 g ai/ha) | Plant response rating, Soybean (soybean; Postemergence, 250 g ai/ha) | Plant response rating, Common Ragweed (common ragweed; postemergence, 500 g ai/ha) | Plant response rating, Barnyardgrass (barnyardgrass; 125 g ai/ha)
30: Plant response rating, Fall Panicum (fall panicum; Postemergence, 125 g ai/ha) | Plant response rating, Pigweed, Palmer (pigweed, palmer; Postemergence, 31 g ai/ha)
60: Plant response rating, Pigweed, Palmer (pigweed, palmer; Postemergence, 125 g ai/ha)
85: Plant response rating, Ryegrass, Italian (ryegrass, Italian; 31 g ai/ha) | Plant response rating, Barnyardgrass (barnyardgrass; 62 g ai/ha)
10: Plant response rating, Fall Panicum (fall panicum; Postemergence, 31 g ai/ha)
25: Plant response rating, Pigweed, Palmer (pigweed, palmer; postemergence, 62 g ai/ha)
98: Plant response rating, Signalgrass (signalgrass; 31 g ai/ha) | Plant response rating, Signalgrass (signalgrass; 62 g ai/ha) | Plant response rating, Signalgrass (signalgrass; 125 g ai/ha) | Plant response rating, Signalgrass (signalgrass; 250 g ai/ha) | Plant response rating, Barnyardgrass (barnyardgrass; 250 g ai/ha) | Plant response rating, Bermudagrass (bermudagrass; 62 g ai/ha) | Plant response rating, Bermudagrass (bermudagrass; 125 g ai/ha)
70: Plant response rating, Soybean (soybean; Postemergence, 31 g ai/ha) | Plant response rating, Common Ragweed (common ragweed; postemergence, 62 g ai/ha) | Plant response rating, Ragweed (ragweed; 16 g ai/ha) | Plant response rating, Barnyardgrass (barnyardgrass; 31 g ai/ha) | Plant response rating, Bermudagrass (bermudagrass; 16 g ai/ha)
100: Plant response rating, Kochia (kochia; 16 g ai/ha) | Plant response rating, Kochia (kochia; 31 g ai/ha) | Plant response rating, Kochia (kochia; 62 g ai/ha) | Plant response rating, Kochia (kochia; 125 g ai/ha) | Plant response rating, Kochia (kochia; 250 g ai/ha) | Plant response rating, Dayflower, VA (dayflower, VA; 250 g ai/ha) | Plant response rating, Soybean (soybean; postemergence, 500 g ai/ha) | Plant response rating, Ryegrass, Italian (ryegrass, Italian; 62 g ai/ha) | Plant response rating, Ryegrass, Italian (ryegrass, Italian; 125 g ai/ha) | Plant response rating, Ryegrass, Italian (ryegrass, Italian; 250 g ai/ha) | Plant response rating, Morningglory (morningglory; 16 g ai/ha) | Plant response rating, Morningglory (morningglory; 31 g ai/ha) | Plant response rating, Morningglory (morningglory; 62 g ai/ha) | Plant response rating, Morningglory (morningglory; 125 g ai/ha) | Plant response rating, Morningglory (morningglory; 250 g ai/ha) | Plant response rating, Mustard, Black (mustard, black; 16 g ai/ha) | Plant response rating, Mustard, Black (mustard, black; 31 g ai/ha) | Plant response rating, Mustard, Black (mustard, black; 62 g ai/ha) | Plant response rating, Mustard, Black (mustard, black; 125 g ai/ha) | Plant response rating, Mustard, Black (mustard, black; 250 g ai/ha) | Plant response rating, Ragweed (ragweed; 31 g ai/ha) | Plant response rating, Ragweed (ragweed; 62 g ai/ha) | Plant response rating, Ragweed (ragweed; 125 g ai/ha) | Plant response rating, Ragweed (ragweed; 250 g ai/ha) | Plant response rating, Bermudagrass (bermudagrass; 250 g ai/ha)
